Data published in article PMC6085820 (Molecular Biology of the Cell, 2018).

Biological target: T1, Mtq2:Trm112 (Saccharomyces cerevisiae, UniProt Q03920)
T1 sequence (Q03920 1-221): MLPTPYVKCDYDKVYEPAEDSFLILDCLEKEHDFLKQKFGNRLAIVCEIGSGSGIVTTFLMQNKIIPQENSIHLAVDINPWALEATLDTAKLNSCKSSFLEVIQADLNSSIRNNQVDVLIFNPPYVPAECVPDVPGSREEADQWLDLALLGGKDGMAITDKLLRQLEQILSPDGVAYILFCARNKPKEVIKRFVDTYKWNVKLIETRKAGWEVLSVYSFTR
T1 sequence (P53738 1-135 partner): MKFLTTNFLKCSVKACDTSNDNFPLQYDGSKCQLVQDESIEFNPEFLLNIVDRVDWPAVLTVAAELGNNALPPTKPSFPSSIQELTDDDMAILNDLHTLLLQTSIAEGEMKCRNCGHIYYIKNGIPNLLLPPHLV
Assay: MTase-Glo coupled luminescence assay
Format: biochemical
Conditions: SAM as methyl donor

Row | Compound | MTase-Glo coupled luminescence assay (SAH formation) (100 µM As(III)) | MTase-Glo coupled luminescence assay (SAH formation) (100 µM MAs(III))
1 | O[As](O)O [As(III), sodium arsenite] | SAM-dependent methyltransferase activity of Mtq2:Trm112 using As(III) as substrate was measured | –
2 | C[As](O)O [MAs(III), methyl arsenite] | – | methyltransferase activity was SAM-dependent and additionally capable of using MAs(III) as a substrate
